The results in this text go back to patent US20240166610A1, “SUBSTITUTED PYRIDAZINE PHENOL DERIVATIVES” (MEDSHINE DISCOVERY INC., priority 2021, published 2024).

A word on the IC50: it is the midpoint of a concentration-inhibition curve. The term bioavailability denotes dose-corrected exposure relative to a reference, in per cent.

One data set addresses T1, NLRP3 (Homo sapiens, UniProt Q96P20).
T1 construct: This experiment utilized the human-derived monocyte cell line THP1; endogenous in cells; host or cells: THP-1 (human monocyte line, PMA-differentiated into macrophages)
The experiment in a line: Detecting IC50 of NLRP3 inhibitor by using THP-1 cells (IL-1β secretion, CBA). It counts as cell-based. As to conditions: PMA/LPS/ATP, IL-1β in supernatant. From the text: 1. Experimental principle: This experiment utilized the human-derived monocyte cell line THP1 to investigate the inhibitory activity (IC50) of NLRP3 inhibitor on cellular IL-1β secretion. PMA (12-O-tetradecanoylphorbol-13-acetate) was used to differentiate the monocyte cell line THP1 into mature macrophages, which were then stimulated using LPS (lipopolysaccharide), an agonist of the Toll-like receptor TLR4, to activate the transcriptional activity of the inflammasome NLRP3 and the expression of pro-IL-1β, a precursor of IL-1β. At this time, the inhibitor of NLRP3 was added, and then ATP (adenosine triphosphate) was added to further mature and activate NLRP3, and activate downstream caspase-1. Activated caspase-1 may enzymatically process pro-IL-1β into mature IL-1β that can be secreted.
(1) The density of THP1 cells was adjusted to 5×10^5 cells/mL, then PMA was added, and the final concentration was adjusted to 100 ng/mL. The cells were inoculated 200 μL/well into a 96-well flat-bottom plate, stimulated overnight (<16 hours if possible) at 37° C. and 5% CO2.
(2) The supernatant was discarded the next day, and then the cells were carefully washed twice with Dulbecco's phosphate-buffered saline (200 μL/time).
(3) The cells were stimulated with LPS at a final concentration of 100 ng/mL, added to a 96-well plate (200 μL/well), and cultured at 37° C. and 5% CO2 for 3 hours.
The cells were incubated for 1 hour in a 37° C., 5% CO2 incubator.
(5) ATP was added to each well with a final concentration of 5 mM, and cultured overnight (>18 hours) at 37° C. and 5% CO2.
(6) On the third day, 5 μL of the supernatant was taken, diluted 10-fold, and the content of IL-1β in the supernatant was detected by cytometric bead array (CBA).

The target in data set [1] is T2, hERG potassium ion channel (Homo sapiens, UniProt Q12809).
T2 construct: expressed in transfected cells; host or cells: CHO (CHO-hERG cell line)
T2 sequence (Q12809 whole entry): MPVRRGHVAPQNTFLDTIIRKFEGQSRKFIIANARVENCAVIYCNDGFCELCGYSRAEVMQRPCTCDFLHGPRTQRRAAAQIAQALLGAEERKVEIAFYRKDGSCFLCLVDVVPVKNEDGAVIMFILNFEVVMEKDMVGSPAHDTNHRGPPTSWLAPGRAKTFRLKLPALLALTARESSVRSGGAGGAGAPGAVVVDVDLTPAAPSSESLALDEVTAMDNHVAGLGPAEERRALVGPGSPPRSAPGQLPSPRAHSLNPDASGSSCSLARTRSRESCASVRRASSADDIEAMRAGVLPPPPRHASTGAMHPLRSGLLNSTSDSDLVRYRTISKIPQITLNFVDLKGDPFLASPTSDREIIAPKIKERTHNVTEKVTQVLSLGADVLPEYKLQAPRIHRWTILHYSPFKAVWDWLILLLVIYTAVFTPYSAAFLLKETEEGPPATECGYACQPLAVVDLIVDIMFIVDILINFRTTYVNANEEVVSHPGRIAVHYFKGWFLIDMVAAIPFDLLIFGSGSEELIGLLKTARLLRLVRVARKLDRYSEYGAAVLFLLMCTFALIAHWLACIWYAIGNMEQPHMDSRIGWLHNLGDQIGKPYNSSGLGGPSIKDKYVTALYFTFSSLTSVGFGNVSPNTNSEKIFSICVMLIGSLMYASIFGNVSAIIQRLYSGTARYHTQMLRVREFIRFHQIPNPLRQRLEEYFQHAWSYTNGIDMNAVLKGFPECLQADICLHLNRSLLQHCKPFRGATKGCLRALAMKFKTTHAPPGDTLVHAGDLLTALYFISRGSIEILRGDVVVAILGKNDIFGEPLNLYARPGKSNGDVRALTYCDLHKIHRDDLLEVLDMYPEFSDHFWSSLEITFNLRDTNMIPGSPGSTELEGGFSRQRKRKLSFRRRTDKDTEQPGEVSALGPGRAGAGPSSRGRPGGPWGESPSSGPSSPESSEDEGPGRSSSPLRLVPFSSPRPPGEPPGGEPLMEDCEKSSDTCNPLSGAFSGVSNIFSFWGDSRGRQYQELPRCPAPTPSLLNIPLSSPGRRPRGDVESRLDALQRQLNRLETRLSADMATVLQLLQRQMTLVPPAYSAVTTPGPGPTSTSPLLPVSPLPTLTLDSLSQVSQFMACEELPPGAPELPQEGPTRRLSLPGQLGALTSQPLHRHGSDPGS
The data set can be described thus: Inhibition test on hERG potassium ion channel (automated patch clamp, CHO-hERG cells). It counts as cell-based. Particulars: Qpatch, highest test concentration 40.00 μM. The protocol:
Experimental Example 4: Inhibition Test of Compounds on hERG Potassium Ion Channel
Experimental purpose: To detect the effect of the compounds to be tested on the hERG potassium channel by an automated patch clamp method.
1.1 CHO-hERG cells were cultured in a 175 cm^2 culture flask. When the cell density reached 60 to 80%, the culture medium was removed, and the cells were washed once with 7 mL of PBS (phosphate buffered saline), and then digested with 3 mL of digestion solution.
1.2 After the digestion was completed, 7 mL of culture medium was added to neutralize, then the mixture was centrifuged, and the supernatant was aspirated, and then 5 mL of culture medium was added to re-suspend, ensuring 2 to 5×10^6/mL of cell density.
The process of single cell high impedance sealing and whole cell mode formation were all automatically completed by Qpatch instrument, after obtaining the whole cell recording mode, the cells were clamped at −80 mV, before giving a 5-second +40 mV depolarization stimulus, a 50 millisecond −50 mV prevoltage was given first, and then repolarized to −50 mV for 5 seconds, then returned to −80 mV This voltage stimulation was applied every 15 seconds and after recording for 2 minutes, extracellular fluid was recordings for 5 minutes, and then the administration process was started. The compound concentration was given from the lowest test concentration, each test concentration was given for 2.5 minutes, and 3 μM of Cisapride as the positive control compound was given after all concentrations were continuously given. At least 3 cells (n≥3) were tested at each concentration.
4.1 The mother solution of the compound was diluted with DMSO, and 10 μL of mother solution of the compound was added to 20 μL of DMSO solution, and was 3-fold diluted continuously to 6 DMSO concentrations.
4.2 4 μL of compounds with 6 DMSO concentrations were added to 396 μL of extracellular fluid, 100-fold diluted to 6 intermediate concentrations, and then 80 μL of the compounds with 6 intermediate concentrations were added to 320 μL of extracellular fluid, 5-fold diluted to the final concentration to be tested.
4.3 The highest test concentration was 40.00 μM, in a total of 6 concentrations of 40.00, 13.33, 4.44, 1.48, 0.49, and 0.16 μM respectively.
4.4 The content of DMSO in the final test concentration was not more than 0.2%, and this concentration of DMSO had no effect on hERG potassium channel.
4.5 The whole dilution process of compound preparation was completed by Bravo instrument.
The experimental data were analyzed by GraphPad Prism 5.0 software.
(In general: hERG is a cardiac potassium channel; its block is linked to QT prolongation.)

The nature of data set [2]: In vivo pharmacokinetic evaluation in CD-1 mice. As to conditions: male, mouse, plasma; for half-life: IV, read-out: Half-life T1/2 (IV) (converted); for clearance: read-out: Clearance rate CL; for Vd: read-out: Tissue distribution Vdss; for AUC(0-t): PO, read-out: Area under drug-time curve AUC0-last PO; for bioavailability: read-out: Bioavailability F; for Cmax: read-out: Peak concentration Cmax. On the procedure:
Experimental Example 2: In Vivo Pharmacokinetic Evaluation of Compounds in CD-1 Mice
Experimental purpose: To test the in vivo pharmacokinetics of the compounds in CD-1 mice
CD-1 mice (male, 7 to 9 weeks old)
The rodent pharmacokinetic characteristics after intravenous injection and oral administration of the compounds were tested using a standard protocol. The candidate compound was prepared as a clear solution during the experiment and given to mice for single intravenous injection and oral administration. The vehicle for intravenous injection and oral administration was a mixed vehicle composed of 5% dimethyl sulfoxide and 95% 5% solutol. Four male CD-1 mice were used in this project. Two mice were administered intravenously (IV), and plasma samples were collected at 0 hours (before administration) and 0.0833, 0.25, 0.5, 1, 2, 4, 8, and 24 hours after administration. The other two mice were administered orally by gavage (PO), and plasma samples were collected at 0 hours (before administration) and 0.25, 0.5, 1, 2, 4, 8, and 24 hours after administration. The plasma concentration was quantitatively analyzed by LC-MS/MS analysis method, and the pharmacokinetic parameters were calculated, such as peak concentration (Cmax), clearance rate (CL), half-life (T1/2), […] (Vdss), area under drug-time curve (AUC0-last), bioavailability (F).

Data set [3] in a line: In vivo pharmacokinetic evaluation in SD rats. Particulars: male, rat, plasma, dose IV/PO 1/2 mg/kg; for half-life / clearance / Vd: 1 mg/kg; for half-life: IV, read-out: Half-life T1/2 (IV) (converted); for clearance: read-out: Clearance rate CL; for Vd: read-out: Tissue distribution Vdss; for AUC(0-t): PO, read-out: Area under drug-time curve AUC0-last PO; for bioavailability: read-out: Bioavailability F; for Cmax: read-out: Peak concentration Cmax. On the procedure:
Experimental Example 3: In Vivo Pharmacokinetic Evaluation of Compounds in SD Rats
Experimental Purpose: To Test the In Vivo Pharmacokinetics of the Compounds in SD Rats
The rodent pharmacokinetic characteristics after intravenous injection and oral administration of the compounds were tested using a standard protocol. The candidate compound was prepared as a clear solution during the experiment and given to SD rats for single intravenous injection and oral administration. The vehicle for intravenous injection and oral administration was a mixed vehicle composed of 5% dimethyl sulfoxide and 95% 5% solutol. Four male SD rats were used in this project. Two SD rats were administered intravenously, and plasma samples were collected at 0.083, 0.25, 0.5, 1, 2, 4, 8, and 24 hours after administration. The other two SD rats were administered orally by gavage, and plasma samples were collected at 0.25, 0.5, 1, 2, 4, 8, and 24 hours after administration. The plasma concentration was quantitatively analyzed by LC-MS/MS analysis method, and the pharmacokinetic parameters were calculated, such as peak concentration (Cmaz), clearance rate (CL), half-life (T1/2), […] (Vdss), area under drug-time curve (AUC0-last), bioavailability (F).

SMILES strings stand for the structures. Where a name gives a salt, the structure may show the parent alone.

T1 sequence (Q96P20 whole entry): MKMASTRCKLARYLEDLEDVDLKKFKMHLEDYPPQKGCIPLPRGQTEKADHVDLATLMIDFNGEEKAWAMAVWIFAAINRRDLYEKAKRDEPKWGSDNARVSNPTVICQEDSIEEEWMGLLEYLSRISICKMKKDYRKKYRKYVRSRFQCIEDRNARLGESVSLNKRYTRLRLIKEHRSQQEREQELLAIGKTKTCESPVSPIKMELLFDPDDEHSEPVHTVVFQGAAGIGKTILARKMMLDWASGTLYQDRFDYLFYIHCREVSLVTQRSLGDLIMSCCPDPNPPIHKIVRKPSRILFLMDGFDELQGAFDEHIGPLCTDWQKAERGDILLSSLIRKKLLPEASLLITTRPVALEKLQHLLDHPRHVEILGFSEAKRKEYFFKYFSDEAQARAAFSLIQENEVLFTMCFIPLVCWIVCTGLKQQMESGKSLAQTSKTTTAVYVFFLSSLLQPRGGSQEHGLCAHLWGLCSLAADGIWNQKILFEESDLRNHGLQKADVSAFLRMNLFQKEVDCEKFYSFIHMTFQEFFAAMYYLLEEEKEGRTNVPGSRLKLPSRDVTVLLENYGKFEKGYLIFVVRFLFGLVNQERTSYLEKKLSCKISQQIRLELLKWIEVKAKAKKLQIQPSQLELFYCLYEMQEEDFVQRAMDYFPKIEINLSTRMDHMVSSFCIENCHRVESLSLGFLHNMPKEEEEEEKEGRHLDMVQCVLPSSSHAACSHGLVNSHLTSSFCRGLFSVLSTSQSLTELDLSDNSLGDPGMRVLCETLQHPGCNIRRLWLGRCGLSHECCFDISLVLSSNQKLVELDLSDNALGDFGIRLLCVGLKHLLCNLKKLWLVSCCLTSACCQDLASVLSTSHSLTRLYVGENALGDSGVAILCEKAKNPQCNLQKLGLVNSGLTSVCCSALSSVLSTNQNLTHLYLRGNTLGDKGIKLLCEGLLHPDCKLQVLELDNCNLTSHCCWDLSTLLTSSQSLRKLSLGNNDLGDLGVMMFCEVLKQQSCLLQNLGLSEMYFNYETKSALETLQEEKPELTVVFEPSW

`Cc1cc(NC2CN(C)CC(F)(F)C2)nnc1-c1ccc2sccc2c1O` (single isomer, unassigned) [Compound 70a]: the IC50 on NLRP3 came to 23.4 nM; in data set [1], 34200 nM.

As for `Cc1cc(NC2CN(C)CC(F)(F)C2)nnc1-c1ccc2sccc2c1O` (single isomer, unassigned) [Compound 70b], the half-maximal inhibitory concentration (IC50) at NLRP3 is 3.33 nM; in data set [1] it was above 40000 nM.

For `Cc1cc(N[C@@H]2CCCN(CC#N)C2)nnc1-c1ccc2c(c1O)CCC2` [Compound 12a], the values for the IC50 (at NLRP3; in data set [1]) were 0.97 nM and 31500 nM, respectively.

On to `Cc1cc(N[C@@H]2CCCN(C3COC3)C2)nnc1-c1ccc2c(c1O)CCC2` [Compound 13], for which the IC50 against NLRP3 was 1.55 nM; in data set [1], 21100 nM.

Regarding `Cc1cc(N[C@@H]2CCCN(C3COC3)C2)nnc1-c1ccc(-c2ccc(F)cc2)cc1O` [Compound 21], the results for the IC50 (on NLRP3; in data set [1]) were 62.7 nM and 10600 nM, respectively.

`Cc1cc(N[C@@H]2CCCN(C3COC3)C2)nnc1-c1ccc(C2CC2)cc1O` [Compound 22] returned an IC50 at NLRP3 of 9.2 nM. Also, in data set [2] (1 mg/kg, dose IV/PO 1/2 mg/kg), the half-life was 1.13 h, the clearance worked out at 9.56 mL/min/kg and the Vd turned out to be 0.718 L/kg. In data set [2] (dose IV/PO 1/2 mg/kg), the AUC(0-t) is 5.33 µM·h, the bioavailability stood at 62.4% and the Cmax worked out at 3.22 µM. This compound also came in with an IC50 in data set [1] above 40000 nM.

On NLRP3, `Cc1cc(N[C@@H]2CCCN(CC#N)C2)nnc1-c1ccc(C2CC2)cc1O` [Compound 23] displayed a concentration for half-maximal inhibition (IC50) of 4.7 nM. In addition, in data set [2] (1 mg/kg, dose IV/PO 1/2 mg/kg), the half-life is 1.24 h, the clearance worked out at 6.49 mL/min/kg and the Vd came out at 0.618 L/kg. Besides, in data set [2] (dose IV/PO 1/2 mg/kg), the AUC(0-t) was found to be 10.4 µM·h, the bioavailability was determined as 79.9% and the Cmax is 3.84 µM. Further, in data set [1], the IC50 is above 40000 nM.

In the case of `Cc1cc(N[C@@H]2CCCN(CC(F)(F)F)C2)nnc1-c1ccc2sccc2c1O` [Compound 48], at NLRP3, the concentration for half-maximal inhibition (IC50) was found to be 2.87 nM. For the same compound, in data set [1] (human, CHO cells that express hERG (CHO-hERG)), the IC50 at 2.5 min is at least 42600 nM.

Compound `Cc1cc(N[C@@H]2CCCN(CC#N)C2)nnc1-c1ccc2sccc2c1O` [Compound 53] yielded an IC50 against NLRP3 of 0.74 nM. In data set [3], the half-life was 1.12 h, the clearance turned out to be 10.3 mL/min/kg, the Vd was 0.796 L/kg and the AUC(0-t) was 4.69 µM·h. In addition, in data set [3], the bioavailability was 49.8% and the Cmax worked out at 1.52 µM. Further, the IC50 in data set [1] was 17100 nM.

For the compound `Cc1cc(N[C@H]2CN3CCC2CC3)nnc1-c1ccc2c(c1O)CCC2` [Hydrochloride of compound 7], the concentration for half-maximal inhibition (IC50) against NLRP3 amounted to 5.72 nM; in data set [1], 37500 nM.

As to `Cc1cc(N[C@@H]2CCCN(C)C2)nnc1-c1ccc2sccc2c1O` [Hydrochloride of compound 20], half-maximal inhibition at NLRP3 (IC50) required 0.08 nM. Besides, in data set [2] (2 mg/kg, dose IV/PO 2/10 mg/kg), the half-life was 3.26 h, the clearance was 28.7 mL/min/kg and the Vd came out at 7.03 L/kg. Further, in data set [2] (dose IV/PO 2/10 mg/kg), the AUC(0-t) was 16 µM·h, the bioavailability turned out to be 96.5% and the Cmax was found to be 4.29 µM. In addition, in data set [3], the half-life was 1.81 h, the clearance amounted to 48.5 mL/min/kg, the Vd amounted to 6.79 L/kg and the AUC(0-t) was 0.926 µM·h. Further, in data set [3], the bioavailability was determined as 49.7% and the Cmax amounted to 0.204 µM. The compound further displayed a 50% inhibitory concentration (IC50) in data set [1] of 10300 nM.

For `Cc1cc(NC[C@@H](C)O)nnc1-c1ccc2sccc2c1O` [Hydrochloride of compound 57], the half-inhibitory concentration (IC50) was 3.37 nM at NLRP3 and above 40000 nM in data set [1].

Turning to `Cc1cc(N[C@H]2COC[C@@H]2O)nnc1-c1ccc2sccc2c1O` [Hydrochloride of compound 59], the half-inhibitory concentration (IC50) on NLRP3 is 1.73 nM; in data set [1] it was above 40000 nM.
